From the supplement of paper PMC11061612

How the values were obtained:
Test in all cases: Bliss excess, mean over the matrix (fraction); higher = more synergy
ACHN (Kidney Carcinoma) = system: ACHN (Kidney Carcinoma)
Method in brief: (§1)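 Bliss excess equals the observed combination effect minus the expected value EA + EB − EA·EB, where EA and EB are the effects of each agent alone. Combination Emax is the second-highest inhibition within the matrix. Inhibition was scaled from CellTiter-Glo 2.0 luminescence, with 0 set by vehicle wells and 1 by blank wells, after 72 hours of two-drug dosing of cells plated in 1536-well plates.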

[1] = system: AMO-1 (Plasma Cell Myeloma)
Method in brief: as §1

[2] = system: C-4-I (Cervical Carcinoma)
Method in brief: as §1

[3] = system: Caov-4 (Ovarian Carcinoma)
Method in brief: as §1

D-263MG (Glioblastoma) = system: D-263MG (Glioblastoma)
Method in brief: as §1

[4] = system: EoL-1-cell (Acute Myeloid Leukemia)
Method in brief: as §1

[5] = system: HSC-4 (Oral Cavity Carcinoma)
Method in brief: as §1

[6] = system: Hs-766T (Pancreatic Carcinoma)
Method in brief: as §1

[7] = system: LU-65 (Non-Small Cell Lung Carcinoma)
Method in brief: as §1

[8] = system: MLMA (Other Blood Carcinomas)
Method in brief: as §1

[9] = system: NCI-H1915 (Non-Small Cell Lung Carcinoma)
Method in brief: as §1

[10] = system: NEC8 (Other Solid Carcinomas)
Method in brief: as §1

[11] = system: NUGC-3 (Gastric Carcinoma)
Method in brief: as §1

[12] = system: OSC-20 (Oral Cavity Carcinoma)
Method in brief: as §1

[13] = system: OVCAR-4 (Ovarian Carcinoma)
Method in brief: as §1

[14] = system: PANC-04-03 (Pancreatic Carcinoma)
Method in brief: as §1

[15] = system: SCC-15 (Oral Cavity Carcinoma)
Method in brief: as §1

[16] = system: TE-1 (Esophageal Squamous Cell Carcinoma)
Method in brief: as §1

[17] = system: VA-ES-BJ (Other Solid Carcinomas)
Method in brief: as §1

YH-13 (Glioblastoma) = system: YH-13 (Glioblastoma)
Method in brief: as §1

With Cn1cnc2c(F)c(Nc3ccc(Br)cc3Cl)c(C(=O)NOCCO)cc21 [Selumetinib] + C[C@@H]1COCCN1C2=NC(=NC(=C2)C3(CC3)[S@](=N)(=O)C)C4=C5C=CNC5=NC=C4 [AZD6738] (first compound max 10 µM, 7x7, partner max 10 µM) the Bliss excess (ACHN (Kidney Carcinoma)) was -0.0415, the Bliss excess [1] was -0.0261 and the Bliss excess [2] was 0.0615. The Bliss excess [3] was -0.0221, the Bliss excess (D-263MG (Glioblastoma)) was -0.03 and the Bliss excess [4] was 0.0058. The Bliss excess [5] was 0.0345, the Bliss excess [6] was -0.0794 and the Bliss excess [7] was -0.0244. The Bliss excess [8] was -0.106, the Bliss excess [9] was -0.0264 and the Bliss excess [10] was -0.0014. For the same molecule, the Bliss excess [11] was 0.0428, the Bliss excess [12] was -0.0613 and the Bliss excess [13] was 0.0169. For the same molecule, the Bliss excess [14] was 0.0023, the Bliss excess [15] was -0.0142 and the Bliss excess [16] was -0.0229. For the same molecule, the Bliss excess [17] was -0.0714 and the Bliss excess (YH-13 (Glioblastoma)) was -0.0485.
In the case of C=CCn1c(=O)c2cnc(Nc3ccc(N4CCN(C)CC4)cc3)nc2n1-c1cccc(C(C)(C)O)n1 [AZD1775] + C1CN(CCC1(C(=O)N[C@@H](CCO)C2=CC=C(C=C2)Cl)N)C3=NC=NC4=C3C=CN4 [Capivasertib] (first compound max 3 µM, partner max 3 µM), the Bliss excess (ACHN (Kidney Carcinoma)) is reported as -0.0283, the Bliss excess [1] is reported as 0.0002 and the Bliss excess [2] is reported as 0.0113. For the same molecule, the Bliss excess [3] was -0.0398, the Bliss excess (D-263MG (Glioblastoma)) was -0.0143 and the Bliss excess [4] was -0.0451. The Bliss excess [5] was 0.0018, the Bliss excess [6] was -0.0513 and the Bliss excess [7] was -0.0688. For the same molecule, the Bliss excess [8] was -0.0415, the Bliss excess [9] was 0.0032 and the Bliss excess [10] was 0.013. The Bliss excess [11] was 0.0143, the Bliss excess [12] was -0.0196 and the Bliss excess [13] was -0.0627. For the same molecule, the Bliss excess [14] was 0.083, the Bliss excess [15] was -0.0319 and the Bliss excess [16] was 0.001. For the same molecule, the Bliss excess [17] was -0.0037 and the Bliss excess (YH-13 (Glioblastoma)) was -0.0309.
CCc1c2c(nc3ccc(O)cc13)-c1cc3c(c(=O)n1C2)COC(=O)[C@]3(O)CC [SN-38] + CN(C)CCCOc1ccc(-c2ccc3ncc4c(c3c2)n(C2CCOCC2)c(=O)n4C)cn1 [AZD0156] (first compound max 0.3 µM, 7x7, partner max 1 µM) was tested, and the Bliss excess (ACHN (Kidney Carcinoma)) was -0.0134, the Bliss excess [1] was -0.103 and the Bliss excess [2] was 0.115. The Bliss excess [3] was 0.0268, the Bliss excess (D-263MG (Glioblastoma)) was 0.0701 and the Bliss excess [4] was 0.098. It also gave a Bliss excess [5] of -0.0346, a Bliss excess [6] of -0.0147 and a Bliss excess [7] of -0.0148. The Bliss excess [8] was -0.0501, the Bliss excess [9] was -0.0563 and the Bliss excess [10] was -0.0228. For the same molecule, the Bliss excess [11] was 0.0085, the Bliss excess [12] was -0.0083 and the Bliss excess [13] was -0.0149. The Bliss excess [14] was -0.0226, the Bliss excess [15] was 0.0092 and the Bliss excess [16] was 0.0182. It also gave a Bliss excess [17] of -0.0165 and a Bliss excess (YH-13 (Glioblastoma)) of -0.0036.
Molecule CCN(CCO)CCCOc1ccc2c(Nc3cc(CC(=O)Nc4cccc(F)c4)[nH]n3)ncnc2c1 [AZD2811] + C=CCn1c(=O)c2cnc(Nc3ccc(N4CCN(C)CC4)cc3)nc2n1-c1cccc(C(C)(C)O)n1 [AZD1775] (first compound max 1 µM, partner max 1 µM) has a Bliss excess (ACHN (Kidney Carcinoma)) of 0.0555, a Bliss excess [1] of -0.0276 and a Bliss excess [2] of 0.0264. For the same molecule, the Bliss excess [3] was -0.0258, the Bliss excess (D-263MG (Glioblastoma)) was 0.0698 and the Bliss excess [4] was -0.0033. The Bliss excess [5] was -0.0467, the Bliss excess [6] was -0.0445 and the Bliss excess [7] was -0.0557. The Bliss excess [8] was 0.0432, the Bliss excess [9] was 0.0056 and the Bliss excess [10] was 0.0471. The Bliss excess [11] was 0.0104, the Bliss excess [12] was -0.0449 and the Bliss excess [13] was 0.0107. It also gave a Bliss excess [14] of -0.0441, a Bliss excess [15] of 0.0237 and a Bliss excess [16] of 0.019. The Bliss excess [17] was 0.0263 and the Bliss excess (YH-13 (Glioblastoma)) was -0.003.
COc1nnc2ccc(N3CCC(c4ccc(OCCN5CCN(C)C(=O)[C@H]5C)cc4)CC3)nn12 [AZD5153] + Cn1cnc2c(F)c(Nc3ccc(Br)cc3Cl)c(C(=O)NOCCO)cc21 [Selumetinib] (first compound max 1 µM, 7x7, partner max 10 µM) gave a Bliss excess (ACHN (Kidney Carcinoma)) of 0.0033, a Bliss excess [1] of -0.0076 and a Bliss excess [2] of 0.0398. For the same molecule, the Bliss excess [3] was -0.053, the Bliss excess (D-263MG (Glioblastoma)) was 0.0205 and the Bliss excess [4] was 0.0345. It also gave a Bliss excess [5] of -0.0246, a Bliss excess [6] of -0.0627 and a Bliss excess [7] of 0.031. The Bliss excess [8] was -0.0447, the Bliss excess [9] was -0.0186 and the Bliss excess [10] was 0.0165. For the same molecule, the Bliss excess [11] was -0.0071, the Bliss excess [12] was -0.0816 and the Bliss excess [13] was -0.0214. For the same molecule, the Bliss excess [14] was -0.0358, the Bliss excess [15] was 0.032 and the Bliss excess [16] was 0.0111. The Bliss excess [17] was -0.0155 and the Bliss excess (YH-13 (Glioblastoma)) was -0.0356.
Molecule CC(=O)c1c(C)c2cnc(Nc3ccc(N4CCNCC4)cn3)nc2n(C2CCCC2)c1=O [Palbociclib] + Cn1cnc2c(F)c(Nc3ccc(Br)cc3Cl)c(C(=O)NOCCO)cc21 [Selumetinib] (first compound max 10 µM, 7x7, partner max 10 µM) has a Bliss excess (ACHN (Kidney Carcinoma)) of 0.0146, a Bliss excess [1] of 0.0844 and a Bliss excess [2] of -0.0119. For the same molecule, the Bliss excess [3] was -0.0247, the Bliss excess (D-263MG (Glioblastoma)) was -0.0077 and the Bliss excess [4] was 0.112. It also gave a Bliss excess [5] of -0.0488, a Bliss excess [6] of -0.0221 and a Bliss excess [7] of 0.0042. For the same molecule, the Bliss excess [8] was 0.0398, the Bliss excess [9] was -0.034 and the Bliss excess [10] was -0.0233. The Bliss excess [11] was -0.0178, the Bliss excess [12] was -0.0566 and the Bliss excess [13] was -0.0471. For the same molecule, the Bliss excess [14] was -0.0213, the Bliss excess [15] was -0.0721 and the Bliss excess [16] was 0.0048. The Bliss excess [17] was -0.0518 and the Bliss excess (YH-13 (Glioblastoma)) was 0.0093.
